Here are results for one compound from US20080249043A1, “Methods and Compositions Involving Protein Kinase C-Delta” (priority 2004, published 2008).

The test has as its system HeLa cells. Briefly: CL distribution in mitochondria by NAO staining and flow cytometry in HeLa cells. The test is classed as cell-based. The conditions noted are these: 5 μM AD198 4 h. As for the experimental part:
(a) HeLa cells were treated with 5 μM AD198 or DMSO as control for 4 h. Cells were stained with different concentrations of NAO and the median fluorescent intensity was determined by flow cytometry. (b) The median fluorescent intensity value of control cells stained with 35 μM NAO was considered as 100% and used to calculate the percentages in each NAO concentration. Results were average of two independent experiments. (c) After transfection for 48 h, HeLa-control, HeLa-PLS3 and HeLa-PLS3(T21D) cells were stained with different concentrations of NAO and the median fluorescent intensity was determined by flow cytometry. The median fluorescent intensity value of 35 μM NAO was considered as 100% and used to calculate the percentage in each NAO concentration. Results were average of two independent experiments.
Analysis of CL distribution in the mitochondria outer membrane—NAO was used to determine the distribution of CL in mitochondria (Garcia Fernandez, et al. Anal Biochem 328:174-180 (2004)). When NAO binds CL at 2:1 ratio (in the saturated state), fluorescence emission occurs at 630 nm. When cells were incubated with increasing concentrations of NAO, NAO saturates CL in the outer member first and then the inner member of mitochondria. Lower concentrations of NAO (2.5-12 μM) were used to saturate CL in the mitochondrial outer member and to measure the amount of CL in that compartment. […]
For orientation: A flow cytometer gives signals particle by particle.

Molecules are shown by their SMILES.

For `CCCCC(=O)OCC(=O)[C@]1(O)Cc2c(O)c3c(c(O)c2[C@@H](O[C@H]2C[C@H](NCc4ccccc4)[C@H](O)[C@H](C)O2)C1)C(=O)c1c(OC)cccc1C3=O` [AD198, N-benzyladriamycin-14-valerate], under “HeLa cells”, the “absolute NAO fluorescence (amount of CL)” value is given as “decrease in absolute NAO fluorescence”. In addition, the “percentage of CL in the outer membrane” value (NAO concentrations lower than 9 μM) is “higher percentage of CL than control cells”.
